Laboratory results as given in patent publication US8420657B2 (Novartis AG, priority 2008, dated 2013).

Key:
[1] = tested on: JAK2-dependent nuclear translocation of STAT5-GFP in U-2 OS osteosarcoma cells; assay: STAT5 nuclear translocation assay (Cellomics), rhEpo stimulated U-2 OS STAT5-GFP cells; assay type: cell-based; details: Homo sapiens, U2OS; STAT5 translocation pathway
Description: The medium-throughput (96-well format) cellular automated fluorescence microscopy Cellomics assay can be routinely used to assess the functional activation of Janus Kinases (JAKs), based on the nuclear translocation of their substrate, Signal Transducer and Activator of Transcription (STAT). Nuclear translocation can be monitored either in HT1080 fibrosarcoma cells stably transfected with STAT1 fused to Green Fluorescence Protein (GFP) or in U-2 OS osteosarcoma cells stably transfected with STAT5 fused to Green Fluorescence Protein (GFP). Stimulation of HT1080 cells with interferon-γ (IFN-γ) results in JAK1/JAK2-dependent nuclear translocation of STAT1-GFP, whereas stimulation of U-2 OS cells with recombinant human erythropoietin (rhEpo) results in JAK2-dependent nuclear translocation of STAT5-GFP, both of which can be quantified using the Cellomics Cyto/NucTrans software package. This assay may be used to provide an assessment of the nuclear-cytoplasmic differential (NCD) of STAT-GFP using Hoechst dye to define the boundaries of the nucleus.
U-2 OS osteosarcoma cells may be obtained from ATCC and can be cultured in standard RPMI medium supplemented with 10% FCS and 2 mM L-glutamine. Cells can be stably transfected with STAT5a-GFP using Lipofectamine following the manufacturers' protocol. 24 hours after transfection the medium can be replaced and selected in 400 μg/ml Geneticin. Subsequently, cells can be stably transfected with EpoR using Lipofectamine following the manufacturers' protocol. 24 hours after transfection the medium can be replaced and cells selected in 100 μg/ml Hygromycin B.
Compounds can be dissolved in DMSO to a final stock concentration of 10 mM and stored as aliquots at 4° C. Compounds may be pre-diluted in 100% DMSO at 10 mM, 3 mM 1 mM, 0.3 mM, 0.1 mM, 0.03 mM, 0.01 mM and 0.003 mM. Subsequently, compounds may be diluted in medium and added in 50 μl to the cells. The final compound concentrations tested may be 10 μM, 3 μM 1 μM, 0.3 μM, 0.1 μM, 0.03 μM, 0.01 μM and 0.003 μM and the final DMSO concentration can be 0.1%.
U-2 OS may be seeded at a cell density of 12,000 cells per well in clear-bottom black 96-well Packard View-Plates™. The following day, medium can be removed and replaced with medium containing either the vehicle (DMSO) or increasing concentrations of test compounds for 30 minutes at 37° C. Cells can then be stimulated for 1 hour by adding 10 μl per well of 50 U/ml rhEpo to obtain 5 U/ml of rhEpo as the final concentration. Following treatments, cells can fixed and processed as described above.
The plates can be read on a Cellomics® ArrayscanII automated fluorescence microscope plate reader equipped with a Mercury-Xenon white light illumination source and a Zeiss Axiovert inverted microscope, using the XF100 dichroic/emission filter cube and matching excitation filters, 10× magnification, and a 0.3 numerical aperture objective. Image acquisition and analysis can be performed using a customized protocol based on the ‘NuclearTranslocation’ Bioapplication. For each well, multiple images (fields) can be acquired until a minimum of 1000 cells are counted using two 2 channels: Channel 1 (Hoechst)=focus+nuclear mask, Channel 2 (GFP)=signal quantification in mask areas as outlined below. Nuclei may be first identified based on the Hoechst staining and a mask generated for each nucleus that then serves as a template to generate a circle (eroded inwards by 1 pixel) and a 3 pixel-wide collar-like ring (off-set outwards by 1 pixel), in which the nuclear and cytoplasmic intensity of GFP, respectively, are quantified in the corresponding channel. High content analysis yields numerous measurements per cell and the GFP intensity differential between the nuclear and the cytoplasmic masks may be chosen as a measure of sub-cellular STAT-GFP relocation. The resulting values may be averaged for all cells in the well to return a single measurement plus standard deviation. […]

GST-JAK2(808-1132) = biological target: T1, GST-JAK2(808-1132) (Homo sapiens, UniProt O60674); assay: JAK2 kinase assay (Caliper mobility shift, LabChip 3000); assay type: biochemical
T1 construct: GST-JAK2(808-1132); purchased Invitrogen (Carlsbad, USA) #4288
In short: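 Recombinant GST-JAK2(808-1132) kinase domain with FITC-labelled JAK3tide peptide substrate and ATP; 60 min at 30 °C, EDTA stop. Substrate/product ratio read by microfluidic mobility shift; compounds at 8 final concentrations, 10 to 0.003 μM.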

T1 sequence (O60674 808-1132): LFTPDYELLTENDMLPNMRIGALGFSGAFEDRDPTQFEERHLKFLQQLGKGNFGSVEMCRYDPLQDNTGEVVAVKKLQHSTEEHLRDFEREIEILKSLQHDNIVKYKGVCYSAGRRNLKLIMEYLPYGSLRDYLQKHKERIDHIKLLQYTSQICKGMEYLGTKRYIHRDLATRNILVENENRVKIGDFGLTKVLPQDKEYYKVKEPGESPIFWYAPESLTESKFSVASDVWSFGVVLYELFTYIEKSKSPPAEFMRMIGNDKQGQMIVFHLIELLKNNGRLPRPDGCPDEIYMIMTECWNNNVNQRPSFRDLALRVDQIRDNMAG

IC50 [1] [nM] | IC50 (GST-JAK2(808-1132)) [nM] | Structure (SMILES)
7.7 | 6.5 | CC(C)S(=O)(=O)Nc1ccc(-n2ccc3cnc(Nc4ccc(N5C[C@@H](C)N[C@@H](C)C5)nc4)nc32)cc1 [Example 375, Propane-2-sulfonic acid (4-{2-[6-(cis-3,5-dimethyl-piperazin-1-yl)-pyridin-3-ylamino]-pyrrolo[2,3-d]pyrimidin-7-yl}-phenyl)-amide]
67 | ≤ 3 | Cc1ccc(Nc2ncc3ccn(-c4ccc(S(=O)(=O)NC(C)(C)C)cc4)c3n2)cc1CN1CCNCC1 [Example 376, N-tert-Butyl-4-[2-(4-methyl-3-piperazin-1-ylmethyl-phenylamino)-pyrrolo[2,3-d]pyrimidin-7-yl]-benzenesulfonamide]
> 2600 | 49 | CN1CCN(c2ccc(Nc3ncc4ccn(-c5cc(F)c(CN6CCOCC6)c(F)c5)c4n3)nc2)CC1 [Example 377, [7-(3,5-Difluoro-4-morpholin-4-ylmethyl-phenyl)-7H-pyrrolo[2,3-d]pyrimidin-2-yl]-[5-(4-methyl-piperazin-1-yl)-pyridin-2-yl]-amine]
43 | ≤ 3 | O=C(c1ccc(-n2ccc3cnc(Nc4ccc(CC5CCNCC5)cc4)nc32)cc1F)N1CCOCC1 [Example 381, {2-Fluoro-4-[2-(4-piperidin-4-ylmethyl-phenylamino)-pyrrolo[2,3-d]pyrimidin-7-yl]-phenyl}-morpholin-4-yl-methanone]
6.1 | 5.1 | Fc1cc(-n2ccc3cnc(Nc4ccc(CC5CCNCC5)cc4)nc32)cc(F)c1CN1CCOCC1 [Example 383, [7-(3,5-Difluoro-4-morpholin-4-ylmethyl-phenyl)-7H-pyrrolo[2,3-d]pyrimidin-2-yl]-(4-piperidin-4-ylmethyl-phenyl)-amine]
12 | ≤ 3 | CN1CCN(Cc2cc(Nc3ncc4ccn(-c5cc(F)c(CN6CCOCC6)c(F)c5)c4n3)ccn2)CC1 [Example 384, [7-(3,5-Difluoro-4-morpholin-4-ylmethyl-phenyl)-7H-pyrrolo[2,3-d]pyrimidin-2-yl]-[2-(4-methyl-piperazin-1-ylmethyl)-pyridin-4-yl]-amine]
65.5 | ≤ 3 | Cc1ccc(Nc2ncc3ccn(-c4cc(F)c(CN5CCOCC5)c(F)c4)c3n2)cc1CN1CCNC(C)(C)C1 [Example 385, [7-(3,5-Difluoro-4-morpholin-4-ylmethyl-phenyl)-7H-pyrrolo[2,3-d]pyrimidin-2-yl]-[3-(3,3-dimethyl-piperazin-1-ylmethyl)-4-methyl-phenyl]-amine]
101 | 110 | Cc1ccc(Nc2ncc3ccn(-c4ccc(C(=O)N5CCOCC5)c(F)c4)c3n2)cc1CN1CCNC(C)(C)C1 [Example 386, (4-{2-[3-(3,3-Dimethyl-piperazin-1-ylmethyl)-4-methyl-phenylamino]-pyrrolo[2,3-d]pyrimidin-7-yl}-2-fluoro-phenyl)-morpholin-4-yl-methanone]
45.5 | 9.6 | Cc1ccc(Nc2ncc3ccn(-c4ccc(S(=O)(=O)NC(C)(C)C)cc4)c3n2)cc1CN1C[C@@H](C)N[C@@H](C)C1 [Example 387, N-tert-Butyl-4-{2-[3-(cis-3,5-dimethyl-piperazin-1-ylmethyl)-4-methyl-phenylamino]-pyrrolo[2,3-d]pyrimidin-7-yl}-benzenesulfonamide]
104 | 15 | O=C(c1cc(Nc2ncc3ccn(-c4cc(F)c(CN5CCOCC5)c(F)c4)c3n2)ccn1)N1CCNCC1 [Example 390, {4-[7-(3,5-Difluoro-4-morpholin-4-ylmethyl-phenyl)-7H-pyrrolo[2,3-d]pyrimidin-2-ylamino]-pyridin-2-yl}-piperazin-1-yl-methanone]
150 | 4.9 | C[C@@H]1CN(Cc2cc(Nc3ncc4ccn(-c5cc(F)c(CN6CCOCC6)c(F)c5)c4n3)ccn2)C[C@H](C)N1 [Example 391, [7-(3,5-Difluoro-4-morpholin-4-ylmethyl-phenyl)-7H-pyrrolo[2,3-d]pyrimidin-2-yl]-[2-(cis-3,5-dimethyl-piperazin-1-ylmethyl)-pyridin-4-yl]-amine]
68 | ≤ 3 | Fc1cc(-n2ccc3cnc(Nc4ccnc(OCC5CCNCC5)c4)nc32)cc(F)c1CN1CCOCC1 [Example 392, [7-(3,5-Difluoro-4-morpholin-4-ylmethyl-phenyl)-7H-pyrrolo[2,3-d]pyrimidin-2-yl]-[2-(piperidin-4-ylmethoxy)-pyridin-4-yl]-amine]
52 | 13 | Cc1ccc(Nc2ncc3ccn(-c4cc(F)c(CN5CCOCC5)c(F)c4)c3n2)cc1CN1CCC(F)(F)C1 [Example 393, [7-(3,5-Difluoro-4-morpholin-4-ylmethyl-phenyl)-7H-pyrrolo[2,3-d]pyrimidin-2-yl]-[3-(3,3-difluoro-pyrrolidin-1-ylmethyl)-4-methyl-phenyl]-amine]
1.6 | ≤ 3 | Cc1ccc(Nc2ncc3ccn(-c4cc(F)c(CN5CCOCC5)c(F)c4)c3n2)cc1CN1CC(O)C1 [Example 394, 1-{5-[7-(3,5-Difluoro-4-morpholin-4-ylmethyl-phenyl)-7H-pyrrolo[2,3-d]pyrimidin-2-ylamino]-2-methyl-benzyl}-azetidin-3-ol]
17 | ≤ 3 | Cc1ccc(Nc2ncc3ccn(-c4cc(F)c(CN5CCOCC5)c(F)c4)c3n2)cc1CN1CCN(C)C(=O)C1 [Example 395, 4-{5-[7-(3,5-Difluoro-4-morpholin-4-ylmethyl-phenyl)-7H-pyrrolo[2,3-d]pyrimidin-2-ylamino]-2-methyl-benzyl}-1-methyl-piperazin-2-one]
147 | ≤ 3 | CN(C)CCN1CCN(Cc2cc(Nc3ncc4ccn(-c5cc(F)c(CN6CCOCC6)c(F)c5)c4n3)ccn2)CC1 [Example 396, [7-(3,5-Difluoro-4-morpholin-4-ylmethyl-phenyl)-7H-pyrrolo[2,3-d]pyrimidin-2-yl]-{2-[4-(2-dimethylamino-ethyl)-piperazin-1-ylmethyl]-pyridin-4-yl}-amine]
13 | ≤ 3 | CN1CCN(Cc2cc(Nc3ncc4ccn(-c5cc(F)c(CN6CCOCC6)c(F)c5)c4n3)ccn2)CC1=O [Example 397, 4-{4-[7-(3,5-Difluoro-4-morpholin-4-ylmethyl-phenyl)-7H-pyrrolo[2,3-d]pyrimidin-2-ylamino]-pyridin-2-ylmethyl}-1-methyl-piperazin-2-one]
245 | ≤ 3 | Cc1ccc(Nc2ncc3ccn(-c4cc(F)c(CN5CCOCC5)c(F)c4)c3n2)cc1CN1CCN(CCN(C)C)CC1 [Example 398, [7-(3,5-Difluoro-4-morpholin-4-ylmethyl-phenyl)-7H-pyrrolo[2,3-d]pyrimidin-2-yl]-{3-[4-(2-dimethylamino-ethyl)-piperazin-1-ylmethyl]-4-methyl-phenyl}-amine]
6.6 | ≤ 3 | Cc1ccc(Nc2ncc3ccn(-c4cc(F)c(CN5CCOCC5)c(F)c4)c3n2)cc1CN1CCNCC1=O [Example 399, 1-{5-[7-(3,5-Difluoro-4-morpholin-4-ylmethyl-phenyl)-7H-pyrrolo[2,3-d]pyrimidin-2-ylamino]-2-methyl-benzyl}-piperazin-2-one]
